From the kinase profiling compilation of Christmann-Franck et al. (2016)

How the values were obtained:
Assay in all cases: radiometric filter-binding kinase assay, Kinase HotSpot
Conditions in all cases: compound 0.5 µM; ATP 10 µM
ACVR1B (human) = ACVR1B (human) (UniProt P36896)
BMX (human) = BMX (human) (UniProt P51813)
BRSK1 (human) = BRSK1 (human) (UniProt Q8TDC3)
CAMK2G (human) = CAMK2G (human) (UniProt Q13555)
CDC42BPB (human) = CDC42BPB (human) (UniProt Q9Y5S2)
CDK2 CCNE1 (human) = CDK2 CCNE1 (human) (UniProt P24941+P24864)
CDK6 CCND3 (human) = CDK6 CCND3 (human) (UniProt P30281+Q00534)
CDK9 CCNT1 (human) = CDK9 CCNT1 (human) (UniProt P50750+O60563)
CLK1 (human) = CLK1 (human) (UniProt P49759)
CLK3 (human) = CLK3 (human) (UniProt P49761)
CLK4 (human) = CLK4 (human) (UniProt Q9HAZ1)
CSNK1A1 (human) = CSNK1A1 (human) (UniProt P48729)
CSNK1G3 (human) = CSNK1G3 (human) (UniProt Q9Y6M4)
DAPK1 (human) = DAPK1 (human) (UniProt P53355)
DAPK2 (human) = DAPK2 (human) (UniProt Q9UIK4)
DYRK3 (human) = DYRK3 (human) (UniProt O43781)
EPHA4 (human) = EPHA4 (human) (UniProt P54764)
EPHB2 (human) = EPHB2 (human) (UniProt P29323)
EPHB4 (human) = EPHB4 (human) (UniProt P54760)
GRK6 (human) = GRK6 (human) (UniProt P43250)
IRAK1 (human) = IRAK1 (human) (UniProt P51617)
JAK3 JH1 JH2 (human) = JAK3 JH1 JH2 (human) (UniProt P52333)
MAP3K11 (human) = MAP3K11 (human) (UniProt Q16584)
MAP3K3 (human) = MAP3K3 (human) (UniProt Q99759)
MAP3K8 (human) = MAP3K8 (human) (UniProt P41279)
MAP4K4 (human) = MAP4K4 (human) (UniProt O95819)
MARK3 (human) = MARK3 (human) (UniProt P27448)
NTRK1 (human) = NTRK1 (human) (UniProt P04629)
PIM2 (human) = PIM2 (human) (UniProt Q9P1W9)
PRKCI (human) = PRKCI (human) (UniProt P41743)
PRKD1 (human) = PRKD1 (human) (UniProt Q15139)
PRKX (human) = PRKX (human) (UniProt P51817)
PTK2B (human) = PTK2B (human) (UniProt Q14289)
RIPK2 (human) = RIPK2 (human) (UniProt O43353)
ROCK1 (human) = ROCK1 (human) (UniProt Q13464)
STK3 (human) = STK3 (human) (UniProt Q13188)
STK33 (human) = STK33 (human) (UniProt Q9BYT3)
STK39 (human) = STK39 (human) (UniProt Q9UEW8)
TNK2 (human) = TNK2 (human) (UniProt Q07912)
TSSK2 (human) = TSSK2 (human) (UniProt Q96PF2)
[1] = molecular target: TYK2 JH1 catalytic (human) (UniProt P29597)
ULK2 (human) = ULK2 (human) (UniProt Q8IYT8)

CSNK1A1 (human), sequence (P48729 whole entry, looked up): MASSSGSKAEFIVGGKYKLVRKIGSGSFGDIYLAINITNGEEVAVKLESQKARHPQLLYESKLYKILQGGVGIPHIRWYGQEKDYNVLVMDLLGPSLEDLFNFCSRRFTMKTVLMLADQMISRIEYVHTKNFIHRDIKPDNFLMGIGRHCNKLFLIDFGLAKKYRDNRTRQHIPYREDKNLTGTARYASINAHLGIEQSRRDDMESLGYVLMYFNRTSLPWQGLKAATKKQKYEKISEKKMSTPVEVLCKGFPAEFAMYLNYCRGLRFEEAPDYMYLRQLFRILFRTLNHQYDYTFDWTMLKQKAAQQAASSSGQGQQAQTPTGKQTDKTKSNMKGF
DYRK3 (human), sequence (O43781 whole entry, looked up): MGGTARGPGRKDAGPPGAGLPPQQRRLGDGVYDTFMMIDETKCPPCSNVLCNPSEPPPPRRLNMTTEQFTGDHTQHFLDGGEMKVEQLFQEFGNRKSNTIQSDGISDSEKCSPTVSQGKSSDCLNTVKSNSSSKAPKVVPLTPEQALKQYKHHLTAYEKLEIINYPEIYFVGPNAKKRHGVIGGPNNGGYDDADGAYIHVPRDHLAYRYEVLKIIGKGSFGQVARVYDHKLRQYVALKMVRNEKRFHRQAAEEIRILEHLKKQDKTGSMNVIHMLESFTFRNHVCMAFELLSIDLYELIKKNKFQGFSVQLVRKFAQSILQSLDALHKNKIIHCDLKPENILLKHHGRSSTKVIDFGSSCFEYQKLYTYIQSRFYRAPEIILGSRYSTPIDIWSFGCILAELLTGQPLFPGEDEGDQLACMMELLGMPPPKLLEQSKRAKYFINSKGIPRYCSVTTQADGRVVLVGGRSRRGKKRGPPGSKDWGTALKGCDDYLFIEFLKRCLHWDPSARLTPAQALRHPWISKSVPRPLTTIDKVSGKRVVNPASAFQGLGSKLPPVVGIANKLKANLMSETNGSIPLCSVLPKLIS
PRKX (human), sequence (P51817 whole entry, looked up): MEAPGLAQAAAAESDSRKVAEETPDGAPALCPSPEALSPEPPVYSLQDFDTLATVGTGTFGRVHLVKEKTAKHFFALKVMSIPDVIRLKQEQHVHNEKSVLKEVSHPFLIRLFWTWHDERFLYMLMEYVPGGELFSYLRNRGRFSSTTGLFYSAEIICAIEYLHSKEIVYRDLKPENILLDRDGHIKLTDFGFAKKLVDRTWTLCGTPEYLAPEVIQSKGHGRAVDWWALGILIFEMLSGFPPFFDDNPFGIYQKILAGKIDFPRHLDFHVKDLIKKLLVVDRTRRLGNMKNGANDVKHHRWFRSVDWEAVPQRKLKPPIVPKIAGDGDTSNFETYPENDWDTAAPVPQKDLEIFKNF
TSSK2 (human), sequence (Q96PF2 whole entry, looked up): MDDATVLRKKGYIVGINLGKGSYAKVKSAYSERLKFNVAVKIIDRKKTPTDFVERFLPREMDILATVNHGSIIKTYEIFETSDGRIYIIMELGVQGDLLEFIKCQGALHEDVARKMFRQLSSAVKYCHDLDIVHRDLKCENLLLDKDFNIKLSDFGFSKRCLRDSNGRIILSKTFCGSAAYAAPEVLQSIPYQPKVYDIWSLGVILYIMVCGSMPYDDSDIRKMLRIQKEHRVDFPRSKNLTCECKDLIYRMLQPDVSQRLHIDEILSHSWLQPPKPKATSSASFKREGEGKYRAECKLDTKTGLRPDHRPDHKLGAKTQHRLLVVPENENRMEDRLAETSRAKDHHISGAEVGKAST
MARK3 (human), sequence (P27448 whole entry, looked up): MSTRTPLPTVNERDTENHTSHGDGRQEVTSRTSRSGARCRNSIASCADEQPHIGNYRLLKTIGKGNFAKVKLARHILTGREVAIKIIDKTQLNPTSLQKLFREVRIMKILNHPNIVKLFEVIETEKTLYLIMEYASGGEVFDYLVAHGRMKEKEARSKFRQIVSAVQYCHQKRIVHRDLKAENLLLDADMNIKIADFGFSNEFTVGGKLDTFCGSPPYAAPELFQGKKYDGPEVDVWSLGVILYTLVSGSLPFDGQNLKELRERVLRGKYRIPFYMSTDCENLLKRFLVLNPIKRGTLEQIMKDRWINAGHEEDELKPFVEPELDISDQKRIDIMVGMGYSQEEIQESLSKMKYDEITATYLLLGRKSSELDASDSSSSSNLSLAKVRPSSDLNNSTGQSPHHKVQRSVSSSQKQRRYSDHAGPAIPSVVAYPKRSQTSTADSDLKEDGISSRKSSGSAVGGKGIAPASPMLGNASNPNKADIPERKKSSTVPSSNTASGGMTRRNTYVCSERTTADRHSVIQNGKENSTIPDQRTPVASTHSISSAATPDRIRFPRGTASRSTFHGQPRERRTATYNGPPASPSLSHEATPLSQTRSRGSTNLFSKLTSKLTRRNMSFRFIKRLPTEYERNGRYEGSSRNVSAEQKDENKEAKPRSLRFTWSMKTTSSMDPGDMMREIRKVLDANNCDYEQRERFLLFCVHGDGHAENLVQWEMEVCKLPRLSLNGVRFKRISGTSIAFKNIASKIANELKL
PTK2B (human), sequence (Q14289 whole entry, looked up): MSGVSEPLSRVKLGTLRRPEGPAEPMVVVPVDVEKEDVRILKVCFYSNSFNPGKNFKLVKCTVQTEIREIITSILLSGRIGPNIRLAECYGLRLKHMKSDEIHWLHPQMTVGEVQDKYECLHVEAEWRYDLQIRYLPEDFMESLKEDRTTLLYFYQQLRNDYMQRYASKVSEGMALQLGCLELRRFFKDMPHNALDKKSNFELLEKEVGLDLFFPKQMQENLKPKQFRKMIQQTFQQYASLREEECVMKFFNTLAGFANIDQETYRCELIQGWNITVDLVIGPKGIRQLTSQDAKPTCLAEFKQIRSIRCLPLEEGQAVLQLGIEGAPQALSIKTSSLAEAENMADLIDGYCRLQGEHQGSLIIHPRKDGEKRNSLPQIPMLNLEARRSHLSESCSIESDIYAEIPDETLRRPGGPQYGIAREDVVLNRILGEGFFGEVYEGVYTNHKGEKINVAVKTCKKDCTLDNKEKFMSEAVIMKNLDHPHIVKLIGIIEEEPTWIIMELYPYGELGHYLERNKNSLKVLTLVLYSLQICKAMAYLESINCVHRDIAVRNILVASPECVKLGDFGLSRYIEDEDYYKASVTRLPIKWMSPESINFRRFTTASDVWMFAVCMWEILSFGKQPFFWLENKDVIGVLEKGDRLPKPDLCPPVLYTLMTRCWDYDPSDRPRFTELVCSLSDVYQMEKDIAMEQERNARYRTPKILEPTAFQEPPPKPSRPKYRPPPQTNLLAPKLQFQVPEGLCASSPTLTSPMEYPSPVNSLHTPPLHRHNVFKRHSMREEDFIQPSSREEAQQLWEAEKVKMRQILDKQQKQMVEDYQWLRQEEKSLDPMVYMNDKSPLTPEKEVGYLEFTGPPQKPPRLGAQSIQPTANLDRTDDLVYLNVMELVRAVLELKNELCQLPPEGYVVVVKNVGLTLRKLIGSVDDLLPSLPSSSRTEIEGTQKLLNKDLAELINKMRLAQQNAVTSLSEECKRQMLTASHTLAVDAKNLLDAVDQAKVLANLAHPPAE
EPHB4 (human), sequence (P54760 whole entry, looked up): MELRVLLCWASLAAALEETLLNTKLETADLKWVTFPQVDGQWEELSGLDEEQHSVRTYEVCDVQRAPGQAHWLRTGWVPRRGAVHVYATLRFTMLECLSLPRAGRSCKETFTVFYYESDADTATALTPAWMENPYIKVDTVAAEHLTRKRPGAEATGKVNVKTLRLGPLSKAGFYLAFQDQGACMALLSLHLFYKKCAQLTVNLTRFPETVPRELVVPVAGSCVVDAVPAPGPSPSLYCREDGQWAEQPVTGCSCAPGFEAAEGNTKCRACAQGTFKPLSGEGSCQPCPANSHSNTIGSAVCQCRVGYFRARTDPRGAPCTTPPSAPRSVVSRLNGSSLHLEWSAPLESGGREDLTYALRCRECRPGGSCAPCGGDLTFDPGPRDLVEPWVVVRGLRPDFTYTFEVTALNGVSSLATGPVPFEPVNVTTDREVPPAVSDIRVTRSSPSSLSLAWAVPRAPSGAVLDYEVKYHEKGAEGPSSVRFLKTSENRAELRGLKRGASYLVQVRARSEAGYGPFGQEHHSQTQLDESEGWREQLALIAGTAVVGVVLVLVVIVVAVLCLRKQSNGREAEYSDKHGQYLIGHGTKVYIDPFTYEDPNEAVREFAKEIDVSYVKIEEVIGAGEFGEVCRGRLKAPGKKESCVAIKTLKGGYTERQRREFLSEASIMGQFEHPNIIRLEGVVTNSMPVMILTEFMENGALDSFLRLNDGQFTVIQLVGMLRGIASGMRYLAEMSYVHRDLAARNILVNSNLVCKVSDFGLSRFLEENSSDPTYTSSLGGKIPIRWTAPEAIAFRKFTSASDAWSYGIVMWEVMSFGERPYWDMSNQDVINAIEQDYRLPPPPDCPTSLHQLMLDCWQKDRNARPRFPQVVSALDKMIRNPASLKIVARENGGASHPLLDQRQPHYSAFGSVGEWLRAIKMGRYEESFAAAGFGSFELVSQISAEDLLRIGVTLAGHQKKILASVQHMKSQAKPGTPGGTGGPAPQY
MAP3K3 (human), sequence (Q99759 whole entry, looked up): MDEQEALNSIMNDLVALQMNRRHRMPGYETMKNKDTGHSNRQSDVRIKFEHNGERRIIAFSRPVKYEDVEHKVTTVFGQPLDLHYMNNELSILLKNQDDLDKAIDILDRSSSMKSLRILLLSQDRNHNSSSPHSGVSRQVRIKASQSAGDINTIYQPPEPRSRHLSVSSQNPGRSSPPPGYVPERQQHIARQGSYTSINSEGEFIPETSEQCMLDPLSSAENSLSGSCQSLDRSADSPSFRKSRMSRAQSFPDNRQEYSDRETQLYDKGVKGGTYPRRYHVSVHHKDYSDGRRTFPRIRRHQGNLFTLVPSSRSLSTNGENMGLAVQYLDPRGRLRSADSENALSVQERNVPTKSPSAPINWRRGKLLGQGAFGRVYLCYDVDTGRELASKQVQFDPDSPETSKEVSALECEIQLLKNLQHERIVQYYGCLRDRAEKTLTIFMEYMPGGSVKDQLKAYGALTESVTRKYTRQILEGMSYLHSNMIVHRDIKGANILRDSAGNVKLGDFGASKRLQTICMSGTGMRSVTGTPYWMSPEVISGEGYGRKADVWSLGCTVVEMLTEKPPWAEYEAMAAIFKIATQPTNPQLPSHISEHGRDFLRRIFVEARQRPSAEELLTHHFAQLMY

## O=c1cc(N2CCNCC2)oc2c(-c3ccccc3)cccc12
ACVR1B (human)
  residual activity: 105%
BMX (human)
  residual activity: 98%
BRSK1 (human)
  residual activity: 95.3%
CAMK2G (human)
  residual activity: 102%
CDC42BPB (human)
  residual activity: 97.5%
CDK2 CCNE1 (human)
  residual activity: 91.6%
CDK6 CCND3 (human)
  residual activity: 93.8%
CDK9 CCNT1 (human)
  residual activity: 98.8%
CLK1 (human)
  residual activity: 102%
CLK3 (human)
  residual activity: 109%
CLK4 (human)
  residual activity: 88.9%
CSNK1A1 (human)
  residual activity: 104%
CSNK1G3 (human)
  residual activity: 102%
DAPK1 (human)
  residual activity: 91.1%
DAPK2 (human)
  residual activity: 94%
DYRK3 (human)
  residual activity: 97.8%
EPHA4 (human)
  residual activity: 100%
EPHB2 (human)
  residual activity: 97.3%
EPHB4 (human)
  residual activity: 101%
GRK6 (human)
  residual activity: 89.6%
IRAK1 (human)
  residual activity: 162%
JAK3 JH1 JH2 (human)
  residual activity: 96.9%
MAP3K11 (human)
  residual activity: 97.8%
MAP3K3 (human)
  residual activity: 109%
MAP3K8 (human)
  residual activity: 95.2%
MAP4K4 (human)
  residual activity: 92.7%
MARK3 (human)
  residual activity: 88.8%
NTRK1 (human)
  residual activity: 96.4%
PIM2 (human)
  residual activity: 121%
PRKCI (human)
  residual activity: 105%
PRKD1 (human)
  residual activity: 91.9%
PRKX (human)
  residual activity: 99%
PTK2B (human)
  residual activity: 88.3%
RIPK2 (human)
  residual activity: 82.9%
ROCK1 (human)
  residual activity: 104%
STK3 (human)
  residual activity: 102%
STK33 (human)
  residual activity: 86.1%
STK39 (human)
  residual activity: 88.5%
TNK2 (human)
  residual activity: 90.7%
TSSK2 (human)
  residual activity: 101%
[1]
  residual activity: 98.5%
ULK2 (human)
  residual activity: 108%

## Cc1ccc(NC(=O)c2ccc(CN3CCN(C)CC3)cc2)cc1Nc1nc(-c2cccnc2)cs1
ACVR1B (human)
  residual activity: 99.8%
BMX (human)
  residual activity: 104%
BRSK1 (human)
  residual activity: 102%
CAMK2G (human)
  residual activity: 98.6%
CDC42BPB (human)
  residual activity: 98.1%
CDK2 CCNE1 (human)
  residual activity: 95%
CDK6 CCND3 (human)
  residual activity: 90.5%
CDK9 CCNT1 (human)
  residual activity: 99.2%
CLK1 (human)
  residual activity: 101%
CLK3 (human)
  residual activity: 93.6%
CLK4 (human)
  residual activity: 93.3%
CSNK1A1 (human)
  residual activity: 98.5%
CSNK1G3 (human)
  residual activity: 96.8%
DAPK1 (human)
  residual activity: 97.5%
DAPK2 (human)
  residual activity: 104%
DYRK3 (human)
  residual activity: 108%
EPHA4 (human)
  residual activity: 105%
EPHB2 (human)
  residual activity: 95.3%
EPHB4 (human)
  residual activity: 97.3%
GRK6 (human)
  residual activity: 104%
IRAK1 (human)
  residual activity: 104%
JAK3 JH1 JH2 (human)
  residual activity: 93.7%
MAP3K11 (human)
  residual activity: 101%
MAP3K3 (human)
  residual activity: 108%
MAP3K8 (human)
  residual activity: 91.5%
MAP4K4 (human)
  residual activity: 72.2%
MARK3 (human)
  residual activity: 100%
NTRK1 (human)
  residual activity: 97.1%
PIM2 (human)
  residual activity: 118%
PRKCI (human)
  residual activity: 93.7%
PRKD1 (human)
  residual activity: 98.2%
PRKX (human)
  residual activity: 99.5%
PTK2B (human)
  residual activity: 98.9%
RIPK2 (human)
  residual activity: 108%
ROCK1 (human)
  residual activity: 102%
STK3 (human)
  residual activity: 94.4%
STK33 (human)
  residual activity: 91.1%
STK39 (human)
  residual activity: 94%
TNK2 (human)
  residual activity: 95.7%
TSSK2 (human)
  residual activity: 102%
[1]
  residual activity: 101%
ULK2 (human)
  residual activity: 103%

## O=c1cc(-c2cccc3c2Sc2ccccc2S3)oc(N2CCOCC2)c1
ACVR1B (human)
  residual activity: 114%
BMX (human)
  residual activity: 112%
BRSK1 (human)
  residual activity: 98.2%
CAMK2G (human)
  residual activity: 106%
CDC42BPB (human)
  residual activity: 103%
CDK2 CCNE1 (human)
  residual activity: 84.6%
CDK6 CCND3 (human)
  residual activity: 106%
CDK9 CCNT1 (human)
  residual activity: 100%
CLK1 (human)
  residual activity: 103%
CLK3 (human)
  residual activity: 121%
CLK4 (human)
  residual activity: 101%
CSNK1A1 (human)
  residual activity: 94.9%
CSNK1G3 (human)
  residual activity: 87.9%
DAPK1 (human)
  residual activity: 82.7%
DAPK2 (human)
  residual activity: 98.8%
DYRK3 (human)
  residual activity: 84.3%
EPHA4 (human)
  residual activity: 101%
EPHB2 (human)
  residual activity: 102%
EPHB4 (human)
  residual activity: 94.3%
GRK6 (human)
  residual activity: 83%
IRAK1 (human)
  residual activity: 103%
JAK3 JH1 JH2 (human)
  residual activity: 108%
MAP3K11 (human)
  residual activity: 98.6%
MAP3K3 (human)
  residual activity: 137%
MAP3K8 (human)
  residual activity: 103%
MAP4K4 (human)
  residual activity: 93.2%
MARK3 (human)
  residual activity: 106%
NTRK1 (human)
  residual activity: 99.4%
PIM2 (human)
  residual activity: 118%
PRKCI (human)
  residual activity: 103%
PRKD1 (human)
  residual activity: 90.3%
PRKX (human)
  residual activity: 113%
PTK2B (human)
  residual activity: 106%
RIPK2 (human)
  residual activity: 114%
ROCK1 (human)
  residual activity: 101%
STK3 (human)
  residual activity: 101%
STK33 (human)
  residual activity: 93.3%
STK39 (human)
  residual activity: 84%
TNK2 (human)
  residual activity: 95.7%
TSSK2 (human)
  residual activity: 97.7%
[1]
  residual activity: 95.8%
ULK2 (human)
  residual activity: 123%
